Experimental data as given in PubChem BioAssay AID1671275.

Target: Ephrin type-B receptor 3 (Homo sapiens) (UniProt P54753)
Experiment: inhibition of human ephrin receptor B3 activity – biochemical, Z'-LYTE, FRET, protease-coupled, direct format, dose response (AID 1671275)
Conditions: Z'-LYTE FRET kinase activity assay, recombinant EPHB3

Sequence of Ephrin type-B receptor 3 (Homo sapiens) (P54753 whole entry, looked up): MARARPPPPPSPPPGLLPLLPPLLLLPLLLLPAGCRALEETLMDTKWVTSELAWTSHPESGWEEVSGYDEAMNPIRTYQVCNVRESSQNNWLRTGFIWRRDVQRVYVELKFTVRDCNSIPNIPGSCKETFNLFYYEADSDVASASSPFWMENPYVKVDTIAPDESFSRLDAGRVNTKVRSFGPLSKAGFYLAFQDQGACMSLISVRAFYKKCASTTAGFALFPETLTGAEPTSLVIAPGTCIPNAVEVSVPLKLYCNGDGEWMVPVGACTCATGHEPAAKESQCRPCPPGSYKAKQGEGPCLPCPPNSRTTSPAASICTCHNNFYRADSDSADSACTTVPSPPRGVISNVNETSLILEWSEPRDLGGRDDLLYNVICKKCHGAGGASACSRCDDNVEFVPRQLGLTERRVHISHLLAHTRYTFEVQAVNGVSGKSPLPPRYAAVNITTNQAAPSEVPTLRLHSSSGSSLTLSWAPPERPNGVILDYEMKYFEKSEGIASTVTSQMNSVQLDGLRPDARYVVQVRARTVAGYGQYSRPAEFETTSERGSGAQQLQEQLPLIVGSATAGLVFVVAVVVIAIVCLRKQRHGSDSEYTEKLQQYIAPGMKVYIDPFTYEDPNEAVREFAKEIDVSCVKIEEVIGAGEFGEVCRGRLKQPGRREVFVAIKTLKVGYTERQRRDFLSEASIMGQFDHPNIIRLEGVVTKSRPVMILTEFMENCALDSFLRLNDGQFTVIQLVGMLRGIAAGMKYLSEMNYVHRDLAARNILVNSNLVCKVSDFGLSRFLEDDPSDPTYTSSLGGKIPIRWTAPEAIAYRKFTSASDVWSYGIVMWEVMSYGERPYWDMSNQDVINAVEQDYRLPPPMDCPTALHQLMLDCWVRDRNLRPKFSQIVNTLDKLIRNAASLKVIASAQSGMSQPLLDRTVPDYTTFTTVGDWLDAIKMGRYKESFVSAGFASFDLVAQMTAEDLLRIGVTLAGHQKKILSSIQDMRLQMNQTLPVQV

IC50: 763 nM
SMILES: CC(C)(C)n1nc(-c2ccc(Cl)cc2)c2c(N)ncnc21
